Results from US7268241B2, “Method for the production of 4-(17$g(a)-methyl substituted 3-oxoestra-4 9-dien-11$g(b)-yl)benzaldehyd-(1e or 1z)-oximes” (Schering AG, priority 2000, dated 2007).

Legend:
Glucocorticoid Receptor = target: T1, Glucocorticoid Receptor (Rattus norvegicus, UniProt P06536); assay: Receptor binding affinity, competitive binding of 3H-Dexamethasone tracer in thymus cytosol; settings: relative binding affinity; thymus cytosol of the adrenalectomized rat; tracer 3H-Dexamethasone; reference Dexamethasone = 100%
T1 construct: receptors in the cytosol from animal target organs; from tissue; host or cells: thymus cytosol of adrenalectomized rat
T1 sequence (P06536 1-795): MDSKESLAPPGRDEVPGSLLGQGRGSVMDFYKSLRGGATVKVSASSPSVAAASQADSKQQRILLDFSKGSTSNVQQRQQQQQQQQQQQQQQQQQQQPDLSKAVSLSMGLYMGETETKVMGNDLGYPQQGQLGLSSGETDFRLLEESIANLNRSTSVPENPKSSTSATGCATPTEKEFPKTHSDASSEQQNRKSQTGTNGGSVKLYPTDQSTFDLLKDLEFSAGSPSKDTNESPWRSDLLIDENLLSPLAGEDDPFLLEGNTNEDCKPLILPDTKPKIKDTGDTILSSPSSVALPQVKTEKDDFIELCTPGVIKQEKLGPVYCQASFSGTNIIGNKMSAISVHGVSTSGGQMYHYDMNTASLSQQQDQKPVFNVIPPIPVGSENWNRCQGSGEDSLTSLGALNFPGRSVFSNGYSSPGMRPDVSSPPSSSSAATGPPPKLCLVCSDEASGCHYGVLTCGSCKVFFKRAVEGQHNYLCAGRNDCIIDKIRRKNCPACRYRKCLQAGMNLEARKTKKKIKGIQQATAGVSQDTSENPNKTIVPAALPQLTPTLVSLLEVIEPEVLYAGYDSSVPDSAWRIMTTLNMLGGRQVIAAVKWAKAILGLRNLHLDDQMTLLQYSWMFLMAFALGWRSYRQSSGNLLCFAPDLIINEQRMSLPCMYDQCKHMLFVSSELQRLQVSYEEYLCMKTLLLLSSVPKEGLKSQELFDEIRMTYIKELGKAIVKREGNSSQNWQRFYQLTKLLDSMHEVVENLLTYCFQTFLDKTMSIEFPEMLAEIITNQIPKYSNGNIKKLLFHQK
Procedure: (§1) The receptor binding affinity was determined by competitive binding of a specifically binding ^3H-labeled tracer and the compound to be tested to receptors in the cytosol from animal target organs. In this case, receptor saturation and reaction equilibrium in the case of the following reaction conditions were sought:
(§2) Uterus cytosol of the estradiol-primed rabbit, stored at −30° C., in TED buffer (20 mmol of Tris/HCl, pH 7.4; 1 mmol of ethylenediamine tetraacetate, 2 mmol of dithiothreitol) with 250 mmol of saccharose. • Tracer: ^3H—ORG 2058 • Reference substance: Progesterone Glucocorticoid Receptor: • Thymus cytosol of the adrenalectomized rat, thymi stored at −30° C.; TED buffer • Tracer: ^3H-Dexamethasone, 20 nmol • Reference substance: Dexamethasone

pregnancy in the rat = assay: Early-abortive action in the rat; assay type: in vivo; settings: subcutaneous, 5th to 7th day of pregnancy; dose giving complete inhibition of pregnancy
Procedure: The early-abortive action was determined in the rat after subcutaneous administration from the 5th to the 7th day of pregnancy [administration 0.2 ml/animal/day in benzyl benzoate/castor oil (1+4 v/v)]. The dose indicates what amount must be given to at least 4 animals apiece in comparison to untreated animals, so that a complete inhibition of pregnancy is achieved.

Progesterone Receptor = target: T2, Progesterone Receptor (Oryctolagus cuniculus, UniProt P06186); assay: Receptor binding affinity, competitive binding of 3H-ORG 2058 tracer in uterus cytosol; settings: relative binding affinity; uterus cytosol of the estradiol-primed rabbit; tracer 3H-ORG 2058; reference Progesterone = 100%
T2 construct: receptors in the cytosol from animal target organs; from tissue; host or cells: uterus cytosol of estradiol-primed rabbit
T2 sequence (P06186 1-930): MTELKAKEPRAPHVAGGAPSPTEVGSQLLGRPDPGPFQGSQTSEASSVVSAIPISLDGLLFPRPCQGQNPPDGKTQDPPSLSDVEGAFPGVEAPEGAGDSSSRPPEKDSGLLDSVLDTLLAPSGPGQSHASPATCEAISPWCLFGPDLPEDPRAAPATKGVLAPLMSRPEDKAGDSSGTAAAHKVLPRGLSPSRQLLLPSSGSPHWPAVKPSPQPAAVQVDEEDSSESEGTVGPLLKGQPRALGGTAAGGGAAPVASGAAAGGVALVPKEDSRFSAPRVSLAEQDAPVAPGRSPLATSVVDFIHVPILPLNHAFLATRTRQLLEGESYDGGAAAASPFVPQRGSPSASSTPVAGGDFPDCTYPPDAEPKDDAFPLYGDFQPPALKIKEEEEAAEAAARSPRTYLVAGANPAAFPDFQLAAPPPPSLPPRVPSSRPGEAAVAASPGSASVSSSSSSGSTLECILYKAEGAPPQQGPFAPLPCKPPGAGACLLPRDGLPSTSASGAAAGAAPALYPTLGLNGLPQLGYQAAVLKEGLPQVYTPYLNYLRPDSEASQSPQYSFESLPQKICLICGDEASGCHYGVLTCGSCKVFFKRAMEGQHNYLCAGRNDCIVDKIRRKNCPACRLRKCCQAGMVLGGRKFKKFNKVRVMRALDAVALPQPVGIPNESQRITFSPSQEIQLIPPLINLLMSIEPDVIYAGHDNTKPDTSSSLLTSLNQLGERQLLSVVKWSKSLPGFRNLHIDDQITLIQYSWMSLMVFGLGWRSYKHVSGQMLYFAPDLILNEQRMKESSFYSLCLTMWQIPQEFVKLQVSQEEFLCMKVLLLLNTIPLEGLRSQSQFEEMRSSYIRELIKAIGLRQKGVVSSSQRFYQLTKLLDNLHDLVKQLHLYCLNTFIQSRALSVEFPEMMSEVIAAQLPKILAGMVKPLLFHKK
Procedure: as §1, §2

SMILES: CC12CC(c3ccc(C=NO)cc3)C3=C4CCC(=O)C=C4CCC3C1CCC2(O)COCC(F)(F)F (stereo not drawn) [4-[17β-Hydroxy-(17α-(1,1,1-trifluoroethoxymethyl)-3-oxoestra-4,9-dien-11β-yl]benzaldehyde-1E-oxime]
- Glucocorticoid Receptor [Dexamethasone = 100%] (Glucocorticoid Receptor): 94%
- 100% Early-abortive Action in the Rat (pregnancy in the rat): 3.0 mg/animal/day
- Progesterone Receptor [Progesterone = 100%] (Progesterone Receptor): 177%

SMILES: COCC1(O)CCC2C3CCC4=CC(=O)CCC4=C3C(c3ccc(C=NO)cc3)CC21C (stereo not drawn) [4-[17β-Hydroxy-(17α-(methoxymethyl)-3-oxoestra-4,9-dien-11β-] [4-[17β-Hydroxy-17α-(methoxymethyl)-3-oxoestra-4,9-dien-11β-yl]benzaldehyde-1E-oxime]
- Glucocorticoid Receptor [Dexamethasone = 100%] (Glucocorticoid Receptor): 76%
- 100% Early-abortive Action in the Rat (pregnancy in the rat): 1.0 mg/animal/day

SMILES: COCC1(O)CCC2C3CCC4=CC(=O)CCC4=C3C(c3ccc(C=NO)cc3)CC21C (stereo not drawn) [4-[17β-Hydroxy-(17α-(methoxymethyl)-3-oxoestra-4,9-dien-11β-] [4-[17β-hydroxy-17α-(methoxymethyl)-3-oxoestra-4,9-dien-11β-yl]benzaldehyde-1Z-oxime]
- Glucocorticoid Receptor [Dexamethasone = 100%] (Glucocorticoid Receptor): 67%

SMILES: COC[C@]1(OC)CC[C@H]2[C@@H]3CCC4=CC(=O)CCC4=C3[C@@H](c3ccc(/C=N/O)cc3)C[C@@]21C [4-[17β-Methoxy-17α-(methoxymethyl)-3-oxoestra-4,9-dien-11β-yl] benzaldehyde-1E-oxime]
- Glucocorticoid Receptor [Dexamethasone = 100%] (Glucocorticoid Receptor): 78%
- 100% Early-abortive Action in the Rat (pregnancy in the rat): 1.0 mg/animal/day
- Progesterone Receptor [Progesterone = 100%] (Progesterone Receptor): 302%

SMILES: COCC1(OC)CCC2C3CCC4=CC(=O)CCC4=C3C(c3ccc(C=NO)cc3)CC21C (stereo not drawn) [4-[17β-methoxy-17α-(methoxymethyl)-3-oxoestra-4,9-dien-11β-yl]benzaldehyde-1Z-oxime]
- Glucocorticoid Receptor [Dexamethasone = 100%] (Glucocorticoid Receptor): 52%
- 100% Early-abortive Action in the Rat (pregnancy in the rat): 1.0 mg/animal/day
- Progesterone Receptor [Progesterone = 100%] (Progesterone Receptor): 126%

SMILES: CC#C[C@]1(O)CC[C@H]2[C@@H]3CCC4=CC(=O)CCC4=C3[C@@H](c3ccc(N(C)C)cc3)C[C@@]21C [Ru 38 486, reference compound]
- 100% Early-abortive Action in the Rat (pregnancy in the rat): 3.0 mg/animal/day
- Progesterone Receptor [Progesterone = 100%] (Progesterone Receptor): 685%
